Reference: patent US20120121540A1 (priority 2007, published 2012)

Test: HCV replicon assay (luciferase reporter, ET cell line)
Assay type: cell-based
Conditions: Hepatitis C virus, HCV replicon luciferase activity in ET cells
Procedure: A cell line, ET (Huh-lucubineo-ET) is used for screening of compounds for inhibiting HCV RNA dependent RNA polymerase. The ET cell line is stably transfected with RNA transcripts harboring a I389 luc-ubi-neo/NS3-3′/ET; replicon with firefly luciferase-ubiquitin-neomycin phosphotransferase fusion protein and EMCV-IRES driven NS3-5B polyprotein containing the cell culture adaptive mutations (E1202G; T1280I; K1846T) (Krieger at al, 2001 and unpublished). The ET cells are grown in DMEM (Dulbeco's Modified Eagle's Medium), supplemented with 10% fetal calf serum, 2 mM Glutamine, Penicillin (100 IU/mL)/Streptomycin (100 μg/mL), 1× nonessential amino acids, and 250 μg/mL G418 (“Geneticin”). They are all available through Life Technologies (Bethesda, Md.). The cells are plated at 0.5−1.0×10^4 cells/well in the 96 well plates and incubated for 24 hrs before adding test compound. The compounds are added to the cells to achieve a final concentration of 0.1 nM to 50 μm and a final DMSO (dimethylsulfoxide) concentration of 0.5%. Luciferase activity is measured 48-72 hours later by adding a lysis buffer and the substrate (Catalog number Glo-lysis buffer E2661 and Bright-Glo luciferase system E2620 Promega, Madison, Wis.). Cells should not be too confluent during the assay. Percent inhibition of replication data is plotted relative to no compound control. Under the same condition, cytotoxicity of the compounds are determined using cell proliferation reagent, WST-1 (Roche, Germany). The compounds showing antiviral activities, but no significant cytotoxicities are chosen to determine EC50 and TC50. For these determinations, a 10 point, 2-fold serial dilution for each compound was used, which spans a concentration range of 1000 fold. EC50 and similarly TC50 values were calculated by fitting % inhibition at each concentration to the following equation:
% inhibition=100%/[(EC50/[I])^b+1]
where b is Hill's coefficient.
% inhibition values at a specific concentration, […] for example, can also be derived from the equation above.
In the case of `Cn1cc(-c2cc(C(F)(F)F)c3nc(C(=O)N4CCC(c5cccc(F)c5)C4)c(Cl)n3c2)cn1` (centres unmarked) [Compound 624, [3-Chloro-6-(1-methyl-1H-pyrazol-4-yl)-8-trifluoromethyl-imidazo[1,2-a]pyridin-2-yl]-[3-(3-fluoro-phenyl)-pyrrolidin-1-yl]-methanone], the inhibition at 10 µM is reported as 63.9%.
With `O=C(NCc1nccs1)c1nc2c(C(F)(F)F)cc(-c3ccco3)cn2c1Cl` [Compound 182, 3-Chloro-6-furan-2-yl-8-trifluoromethyl-imidazo[1,2-a]pyridine-2-carboxylic acid (thiazol-2-ylmethyl)-amide] the inhibition at 10 µM was 80.8%.
Molecule `O=C(c1nc2c(C(F)(F)F)cc(-c3ccoc3)cn2c1Cl)N1CC=C(c2ccsc2)C1` [Compound 425, (3-Chloro-6-furan-3-yl-8-trifluoromethyl-imidazo[1,2-a]pyridin-2-yl)-(3-thiophen-3-yl-2,5-dihydro-pyrrol-1-yl)-methanone] has an inhibition at 10 µM of 99.3%.
`O=C(c1nc2c(C(F)(F)F)cc(-c3ccccc3)nn2c1Br)N1CCC(c2ccc(F)cc2)C1` (centres unmarked) [Compound 252, (3-Bromo-6-phenyl-8-trifluoromethyl-imidazo[1,2-b]pyridazin-2-yl)-[3-(4-fluoro-phenyl)-pyrrolidin-1-yl]-methanone] showed an inhibition at 10 µM of 84.8%.
Work on `O=C(c1nc2c(C(F)(F)F)cc(-c3ccoc3)cn2c1Cl)N1CCC(c2cccs2)CC1` [Compound 598, [3-chloro-6-(furan-3-yl)-8-(trifluoromethyl)imidazo[1,2-a]pyridin-2-yl][4-(thiophen-2-yl)piperidin-1-yl]methanone] yielded an inhibition at 10 µM of 95.9%.
`O=C(c1nc2c(C(F)(F)F)cc(-c3ccoc3)cn2c1Cl)N1CC=C(c2cc[nH]c2)CC1` [Compound 583, (3-Chloro-6-furan-3-yl-8-trifluoromethyl-imid azo[1,2-a]pyridin-2-yl)-[4-(1H-pyrrol-3-yl)-3,6-dihydro-2H-pyridin-1-yl]-methanone] showed an inhibition at 10 µM of 67.9%.
For `CCn1c(C(=O)N2CCC(c3ccc(F)cc3)C2)nc2cc(-c3ccoc3)cc(C(F)(F)F)c21` (centres unmarked) [Compound 353, (1-Ethyl-5-furan-3-yl-7-trifluoromethyl-1H-benzoimidazol-2-yl)-[3-(4-fluoro-phenyl)-pyrrolidin-1-yl]-methanone], the inhibition at 10 µM was 3.5%.
`O=C(NCc1cccs1)c1nc2c(C(F)(F)F)cc(-c3ccco3)cn2c1Cl` [Compound 152, 3-Chloro-6-furan-2-yl-8-trifluoromethyl-imidazo[1,2-a]pyridine-2-carboxylic acid (thiophen-2-ylmethyl)-amide] gave an inhibition at 10 µM of 92.5%.
`O=C(c1nc2c(C(F)(F)F)cc(-c3ccoc3)cn2c1Cl)N1CCC(c2ccccc2Cl)C1` (centres unmarked) [Compound 341, (3-Chloro-6-furan-3-yl-8-trifluoromethyl-imidazo[1,2-a]pyridin-2-yl)-[3-(2-chloro-phenyl)-pyrrolidin-1-yl]-methanone] gave an inhibition at 10 µM of 83.6%.
`CCN(CC)C(=O)c1ccccc1C1=CCN(C(=O)c2nc3c(C(F)(F)F)cc(-c4ccoc4)cn3c2Cl)CC1` [Compound 560, 2-[1-(3-Chloro-6-furan-3-yl-8-trifluoromethyl-imidazo[1,2-a]pyridine-2-carbonyl)-1,2,3,6-tetrahydro-pyridin-4-yl]-N,N-diethyl-benzamide] showed an inhibition at 10 µM of 80.9%.
In the case of `C[C@H](NC(=O)c1nc2c(C(F)(F)F)cc(-c3ccoc3)cn2c1Cl)c1ccccc1` [Compound 412, 3-Chloro-6-furan-3-yl-8-trifluoromethyl-imidazo[1,2-a]pyridine-2-carboxylic Acid (1-phenyl-ethyl)-amide], the inhibition at 10 µM is reported as 85%.
Work on `O=C(c1nc2c(C(F)(F)F)cc(-c3ccoc3)cn2c1Cl)N1CC(c2ccc(C(F)(F)F)cc2)C1` [Compound 488] yielded an inhibition at 10 µM of 60.2%.
`Cc1c(C(=O)NCc2cccs2)nc2c(C(F)(F)F)cc(-c3ccco3)cn12` [Compound 156, 6-Furan-2-yl-3-methyl-8-trifluoromethyl-imidazo[1,2-a]pyridine-2-carboxylic acid (thiophen-2-ylmethyl)-amide] gave an inhibition at 10 µM of 89.3%.
Molecule `O=C(NCc1cccs1)c1cc2cc(-c3ccccc3)cc(C(F)(F)F)n2n1` [Compound 107, 5-Phenyl-7-trifluoromethyl-pyrazolo[1,5-a]pyridine-2-carboxylic Acid (thiophen-2-ylmethyl)-amide] has an inhibition at 10 µM of 82.4%.
In the case of `O=C(c1nc2c(C(F)(F)F)cc(-c3ccoc3)cn2c1Cl)N1CC=C(OS(=O)(=O)C(F)(F)F)CC1` [Compound 574, Trifluoro-methanesulfonic Acid 1-(3-chloro-6-furan-3-yl-8-trifluoromethyl-imidazo[1,2-a]pyridine-2-carbonyl)-1,2,3,6-tetrahydro-pyridin-4-yl Ester], the inhibition at 10 µM is reported as 79.1%.
With `O=C(NCc1cccs1)c1nn2c(C(F)(F)F)cc(-c3ccccc3)cc2c1Cl` [Compound 122, 3-Chloro-5-phenyl-7-trifluoromethyl-pyrazolo[1,5-a]pyridine-2-carboxylic Acid (thiophen-2-ylmethyl)-amide] the inhibition at 10 µM was 94.3%.
For `Cc1ccccc1C1CCN(C(=O)c2nc3c(C(F)(F)F)cc(-c4ccoc4)cn3c2Cl)CC1` [Compound 542, (3-Chloro-6-furan-3-yl-8-trifluoromethyl-imidazo[1,2-a]pyridin-2-yl)-(4-o-tolyl-piperidin-1-yl)-methanone], the inhibition at 10 µM was 72.4%.
`O=C(c1nc2c(C(F)(F)F)cc(-c3ccoc3)cn2c1Cl)N1CCC(c2ccc(F)cc2)CC1` [Compound 277, (3-Chloro-6-furan-3-yl-8-trifluoromethyl-imidazo[1,2-a]pyridine-2-yl)-[4-(4-fluoro-phenyl)-piperidin-1-yl]-methanone] showed an inhibition at 10 µM of 71.7%.
Work on `O=C(c1nc2c(C(F)(F)F)cc(-c3ccoc3)cn2c1Cl)N1CCCC(c2ccccc2F)C1` (centres unmarked) [Compound 547, (3-Chloro-6-furan-3-yl-8-trifluoromethyl-imidazo[1,2-a]pyridin-2-yl)-[3-(2-fluoro-phenyl)-piperidin-1-yl)-methanone] yielded an inhibition at 10 µM of 94.7%.
In the case of `O=C(c1nc2c(C(F)(F)F)cc(-c3ccoc3)cn2c1Cl)N1CC[C@@H](c2ccccc2)C1` [Compound 262, (3-Chloro-6-furan-3-yl-8-trifluoromethyl-imidazo[1,2-a]pyridin-2-yl)-(3-(S)-phenyl-pyrrolidin-1-yl)-methanone], the inhibition at 10 µM is reported as 97.3%.
`COc1ccc(C2CCN(C(=O)c3nc4c(C(F)(F)F)cc(-c5ccoc5)cn4c3Cl)C2)cc1OC` (centres unmarked) [Compound 339, (3-Chloro-6-furan-3-yl-8-trifluoromethyl-imidazo[1,2-a]pyridin-2-yl)-[3-(3,4-dimethoxy-phenyl)-pyrrolidin-1-yl]-methanone] gave an inhibition at 10 µM of 63%.
`O=C(NCc1cccs1)c1nc2c(C(F)(F)F)cc(-c3ncon3)cn2c1Cl` [Compound 311, 3-Chloro-6-[1,2,4]oxadiazol-3-yl-8-trifluoromethyl-imidazo[1,2-a]pyridine-2-carboxylic Acid (thiophen-2-ylmethyl)-amide] showed an inhibition at 10 µM of 83.2%.
`O=C(NCc1cccs1)c1nc2c(C(F)(F)F)cc(-c3cccc(F)c3)cn2c1I` [Compound 299, 6-(3-Fluoro-phenyl)-3-iodo-8-trifluoromethyl-imidazo[1,2-a]pyridine-2-carboxylic Acid(thiophen-2-ylmethyl)-amide] showed an inhibition at 10 µM of 97.6%.
